Reference: ChEMBL document CHEMBL3885881, “DrugMatrix”

Organism: Rattus norvegicus
Assay: DrugMatrix - Regimen: Daily Repeat
Type: toxicity, organism-based, Sprague-Dawley
Design: regimen Daily Repeat, gender Male, age 6-8 weeks
Details: in vivo, po, route oral GAVAGE, […]; for ABSOLUTE BASOPHIL / ABSOLUTE EOSINOPHIL / ABSOLUTE LYMPHOCYTE / ABSOLUTE MONOCYTE / ABSOLUTE SEGMENTED NEUTROPHIL / BASOPHIL / EOSINOPHIL / ERYTHROCYTE COUNT / HEMATOCRIT / HEMOGLOBIN / LEUKOCYTE COUNT / LYMPHOCYTE / MEAN CORPUSCULAR HEMOGLOBIN / MEAN CORPUSCULAR HEMOGLOBIN CONCENTRATION / MEAN CORPUSCULAR VOLUME / MONOCYTE / NEUTROPHIL / NUCLEATED RED BLOOD CELLS / PLATELET COUNT: tissue Blood; for ALANINE AMINOTRANSFERASE / ALBUMIN / ALKALINE PHOSPHATASE / ASPARTATE AMINOTRANSFERASE / BLOOD UREA NITROGEN / CARBON DIOXIDE / CHLORIDE / CHOLESTEROL / CREATINE PHOSPHOKINASE / CREATININE / GLUCOSE / LACTATE DEHYDROGENASE / LIPASE / PHOSPHORUS / POTASSIUM / SODIUM / TOTAL BILIRUBIN / TOTAL PROTEIN / URIC ACID: tissue Plasma
[1] = 10 mg/kg, 120 h, dose level Low, time 5 day
[2] = 250 mg/kg, 72 h, dose level High, time 3 day
[3] = 250 mg/kg, 120 h, dose level High, time 5 day

Question: With `COc1cc(N)c(Cl)cc1C(=O)NC1CCN(CCCOc2ccc(F)cc2)CC1OC` (centres undefined) [CISAPRIDE] as the compound, how does the “ABSOLUTE BASOPHIL” value [1] read?
Answer: 0 CELLS/uL

Question: What about the “ABSOLUTE EOSINOPHIL” value [1] of the same compound?
Answer: 0 CELLS/uL

Question: What about the “ABSOLUTE LYMPHOCYTE” value [1] of the same compound?
Answer: 8665 CELLS/uL

Question: What about the “ABSOLUTE MONOCYTE” value [1] of the same compound?
Answer: 47.33 CELLS/uL

Question: What about the “ABSOLUTE SEGMENTED NEUTROPHIL” value [1] of the same compound?
Answer: 387.67 CELLS/uL

Question: What about the BASOPHIL [1] of the same compound?
Answer: 0%

Question: And the EOSINOPHIL [1]?
Answer: 0%

Question: And the “ERYTHROCYTE COUNT” value [1]?
Answer: 6.01 x10E6/uL

Question: And the HEMATOCRIT [1]?
Answer: 36.43%

Question: What about the HEMOGLOBIN [1] of the same compound?
Answer: 13.9 G/DL

Question: What about the “LEUKOCYTE COUNT” value [1] of the same compound?
Answer: 9.1 x10E3/uL

Question: What about the LYMPHOCYTE [1] of the same compound?
Answer: 94.67%

Question: What about the “MEAN CORPUSCULAR HEMOGLOBIN” value [1] of the same compound?
Answer: 23.2 pg

Question: And the “MEAN CORPUSCULAR HEMOGLOBIN CONCENTRATION” value [1]?
Answer: 38.17 G/DL

Question: And the “MEAN CORPUSCULAR VOLUME” value [1]?
Answer: 60.73 fL

Question: What about the MONOCYTE [1] of the same compound?
Answer: 0.67%

Question: What about the NEUTROPHIL [1] of the same compound?
Answer: 4.67%

Question: And the “NUCLEATED RED BLOOD CELLS” value [1]?
Answer: 0.33 /100WBC

Question: What about the “PLATELET COUNT” value [1] of the same compound?
Answer: 1215.33 x10E3/uL

Question: And the “ALANINE AMINOTRANSFERASE” value [1]?
Answer: 83.67 u/L

Question: What about the ALBUMIN [1] of the same compound?
Answer: 4.23 G/DL

Question: And the “ALKALINE PHOSPHATASE” value [1]?
Answer: 427.67 u/L

Question: What about the “ASPARTATE AMINOTRANSFERASE” value [1] of the same compound?
Answer: 78.33 u/L

Question: And the “BLOOD UREA NITROGEN” value [1]?
Answer: 13.67 mg/dL

Question: What about the “CARBON DIOXIDE” value [1] of the same compound?
Answer: 35 mmol/L

Question: What about the CHLORIDE [1] of the same compound?
Answer: 99.33 MEQ/L

Question: What about the CHOLESTEROL [1] of the same compound?
Answer: 86.33 mg/dL

Question: What about the “CREATINE PHOSPHOKINASE” value [1] of the same compound?
Answer: 161.33 u/L

Question: And the CREATININE [1]?
Answer: 0.16 mg/dL

Question: And the GLUCOSE [1]?
Answer: 163 mg/dL

Question: And the “LACTATE DEHYDROGENASE” value [1]?
Answer: 134.33 u/L

Question: What about the LIPASE [1] of the same compound?
Answer: 11 u/L

Question: What about the PHOSPHORUS [1] of the same compound?
Answer: 9.6 mg/dL

Question: And the POTASSIUM [1]?
Answer: 5.19 MEQ/L

Question: And the SODIUM [1]?
Answer: 143.17 MEQ/L

Question: What about the “TOTAL BILIRUBIN” value [1] of the same compound?
Answer: 0.17 mg/dL

Question: What about the “TOTAL PROTEIN” value [1] of the same compound?
Answer: 6.1 G/DL

Question: And the “URIC ACID” value [1]?
Answer: 0.37 mg/dL

Question: What about the “ABSOLUTE BASOPHIL” value [2] of the same compound?
Answer: 0 CELLS/uL

Question: What about the “ABSOLUTE EOSINOPHIL” value [2] of the same compound?
Answer: 36.33 CELLS/uL

Question: And the “ABSOLUTE LYMPHOCYTE” value [2]?
Answer: 10590.67 CELLS/uL

Question: And the “ABSOLUTE MONOCYTE” value [2]?
Answer: 0 CELLS/uL

Question: What about the “ABSOLUTE SEGMENTED NEUTROPHIL” value [2] of the same compound?
Answer: 573 CELLS/uL

Question: What about the BASOPHIL [2] of the same compound?
Answer: 0%

Question: And the EOSINOPHIL [2]?
Answer: 0.33%

Question: And the “ERYTHROCYTE COUNT” value [2]?
Answer: 5.39 x10E6/uL

Question: And the HEMATOCRIT [2]?
Answer: 32.73%

Question: And the HEMOGLOBIN [2]?
Answer: 13.17 G/DL

Question: What about the “LEUKOCYTE COUNT” value [2] of the same compound?
Answer: 11.2 x10E3/uL

Question: What about the LYMPHOCYTE [2] of the same compound?
Answer: 94.67%

Question: And the “MEAN CORPUSCULAR HEMOGLOBIN” value [2]?
Answer: 24.43 pg

Question: And the “MEAN CORPUSCULAR HEMOGLOBIN CONCENTRATION” value [2]?
Answer: 40.2 G/DL

Question: What about the “MEAN CORPUSCULAR VOLUME” value [2] of the same compound?
Answer: 60.73 fL

Question: And the MONOCYTE [2]?
Answer: 0%

Question: What about the NEUTROPHIL [2] of the same compound?
Answer: 5%

Question: What about the “NUCLEATED RED BLOOD CELLS” value [2] of the same compound?
Answer: 0 /100WBC

Question: And the “PLATELET COUNT” value [2]?
Answer: 918 x10E3/uL

Question: What about the “ALANINE AMINOTRANSFERASE” value [2] of the same compound?
Answer: 102.67 u/L

Question: And the ALBUMIN [2]?
Answer: 3.83 G/DL

Question: What about the “ALKALINE PHOSPHATASE” value [2] of the same compound?
Answer: 517.33 u/L

Question: What about the “ASPARTATE AMINOTRANSFERASE” value [2] of the same compound?
Answer: 96 u/L

Question: And the “BLOOD UREA NITROGEN” value [2]?
Answer: 13 mg/dL

Question: What about the “CARBON DIOXIDE” value [2] of the same compound?
Answer: 26 mmol/L

Question: And the CHLORIDE [2]?
Answer: 95 MEQ/L

Question: What about the CHOLESTEROL [2] of the same compound?
Answer: 89.67 mg/dL

Question: And the “CREATINE PHOSPHOKINASE” value [2]?
Answer: 253 u/L

Question: What about the CREATININE [2] of the same compound?
Answer: 0.15 mg/dL

Question: And the GLUCOSE [2]?
Answer: 137.33 mg/dL

Question: What about the “LACTATE DEHYDROGENASE” value [2] of the same compound?
Answer: 118.33 u/L

Question: And the LIPASE [2]?
Answer: 12.33 u/L

Question: What about the PHOSPHORUS [2] of the same compound?
Answer: 10.77 mg/dL

Question: And the POTASSIUM [2]?
Answer: 5.65 MEQ/L

Question: And the SODIUM [2]?
Answer: 138.1 MEQ/L

Question: What about the “TOTAL BILIRUBIN” value [2] of the same compound?
Answer: 0.17 mg/dL

Question: And the “TOTAL PROTEIN” value [2]?
Answer: 5.5 G/DL

Question: What about the “URIC ACID” value [2] of the same compound?
Answer: 0.6 mg/dL

Question: And the “ABSOLUTE BASOPHIL” value [3]?
Answer: 0 CELLS/uL

Question: What about the “ABSOLUTE EOSINOPHIL” value [3] of the same compound?
Answer: 43.33 CELLS/uL

Question: And the “ABSOLUTE LYMPHOCYTE” value [3]?
Answer: 8832 CELLS/uL

Question: What about the “ABSOLUTE MONOCYTE” value [3] of the same compound?
Answer: 95.67 CELLS/uL

Question: And the “ABSOLUTE SEGMENTED NEUTROPHIL” value [3]?
Answer: 595.67 CELLS/uL

Question: What about the BASOPHIL [3] of the same compound?
Answer: 0%

Question: And the EOSINOPHIL [3]?
Answer: 0.33%

Question: And the “ERYTHROCYTE COUNT” value [3]?
Answer: 5.74 x10E6/uL

Question: What about the HEMATOCRIT [3] of the same compound?
Answer: 35.13%

Question: What about the HEMOGLOBIN [3] of the same compound?
Answer: 13.57 G/DL

Question: What about the “LEUKOCYTE COUNT” value [3] of the same compound?
Answer: 9.57 x10E3/uL

Question: What about the LYMPHOCYTE [3] of the same compound?
Answer: 92%

Question: And the “MEAN CORPUSCULAR HEMOGLOBIN” value [3]?
Answer: 23.67 pg

Question: What about the “MEAN CORPUSCULAR HEMOGLOBIN CONCENTRATION” value [3] of the same compound?
Answer: 38.63 G/DL

Question: What about the “MEAN CORPUSCULAR VOLUME” value [3] of the same compound?
Answer: 61.23 fL

Question: And the MONOCYTE [3]?
Answer: 1%

Question: What about the NEUTROPHIL [3] of the same compound?
Answer: 6.67%

Question: And the “NUCLEATED RED BLOOD CELLS” value [3]?
Answer: 0.67 /100WBC

Question: What about the “PLATELET COUNT” value [3] of the same compound?
Answer: 1240.33 x10E3/uL

Question: And the “ALANINE AMINOTRANSFERASE” value [3]?
Answer: 89 u/L

Question: What about the ALBUMIN [3] of the same compound?
Answer: 3.93 G/DL

Question: What about the “ALKALINE PHOSPHATASE” value [3] of the same compound?
Answer: 342 u/L

Question: And the “ASPARTATE AMINOTRANSFERASE” value [3]?
Answer: 87.67 u/L

Question: What about the “BLOOD UREA NITROGEN” value [3] of the same compound?
Answer: 14.67 mg/dL

Question: What about the “CARBON DIOXIDE” value [3] of the same compound?
Answer: 34 mmol/L

Question: And the CHLORIDE [3]?
Answer: 99.5 MEQ/L

Question: What about the CHOLESTEROL [3] of the same compound?
Answer: 78.33 mg/dL

Question: And the “CREATINE PHOSPHOKINASE” value [3]?
Answer: 245 u/L

Question: What about the CREATININE [3] of the same compound?
Answer: 0.15 mg/dL

Question: And the GLUCOSE [3]?
Answer: 170.67 mg/dL

Question: What about the “LACTATE DEHYDROGENASE” value [3] of the same compound?
Answer: 145 u/L

Question: What about the LIPASE [3] of the same compound?
Answer: 12.67 u/L

Question: And the PHOSPHORUS [3]?
Answer: 10.53 mg/dL

Question: What about the POTASSIUM [3] of the same compound?
Answer: 5.47 MEQ/L

Question: What about the SODIUM [3] of the same compound?
Answer: 141.95 MEQ/L

Question: And the “TOTAL BILIRUBIN” value [3]?
Answer: 0.17 mg/dL

Question: What about the “TOTAL PROTEIN” value [3] of the same compound?
Answer: 5.57 G/DL

Question: What about the “URIC ACID” value [3] of the same compound?
Answer: 0.67 mg/dL
